Bridge positions count the residues as written; N and C are the ends. Square brackets hold non-standard residues; d marks the D form. Peptide text beside a SMILES is read from it. 1Nal = N[C@@H](Cc1cccc2ccccc12)C(=O)O
What was measured:
human Kv1.3 (CHO) = target: T1, human Kv1.3 (CHO) (Homo sapiens, UniProt P22001); test: cell-based
T1 construct: expressed in transfected cells; host or cells: CHO

human Kv1.1 (HEK293) = target: T2, human Kv1.1 (HEK293) (Homo sapiens, UniProt Q09470); test: cell-based
T2 construct: expressed in transfected cells; host or cells: HEK293
T2 sequence (Q09470 whole entry): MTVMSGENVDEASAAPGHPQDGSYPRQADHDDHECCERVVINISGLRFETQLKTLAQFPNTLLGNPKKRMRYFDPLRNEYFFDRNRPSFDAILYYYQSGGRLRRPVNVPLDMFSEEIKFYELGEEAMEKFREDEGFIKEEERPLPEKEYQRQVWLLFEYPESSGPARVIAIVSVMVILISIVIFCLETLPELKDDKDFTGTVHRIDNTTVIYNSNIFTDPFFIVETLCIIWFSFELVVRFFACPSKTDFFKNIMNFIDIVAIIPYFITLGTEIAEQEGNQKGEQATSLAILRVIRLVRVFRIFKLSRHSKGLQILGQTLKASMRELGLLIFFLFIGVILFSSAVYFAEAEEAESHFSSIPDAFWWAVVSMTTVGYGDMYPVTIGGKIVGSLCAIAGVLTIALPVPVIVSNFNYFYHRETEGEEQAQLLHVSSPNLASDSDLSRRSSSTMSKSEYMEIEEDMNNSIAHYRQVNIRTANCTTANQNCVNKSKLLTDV

T1 sequence (P22001 whole entry): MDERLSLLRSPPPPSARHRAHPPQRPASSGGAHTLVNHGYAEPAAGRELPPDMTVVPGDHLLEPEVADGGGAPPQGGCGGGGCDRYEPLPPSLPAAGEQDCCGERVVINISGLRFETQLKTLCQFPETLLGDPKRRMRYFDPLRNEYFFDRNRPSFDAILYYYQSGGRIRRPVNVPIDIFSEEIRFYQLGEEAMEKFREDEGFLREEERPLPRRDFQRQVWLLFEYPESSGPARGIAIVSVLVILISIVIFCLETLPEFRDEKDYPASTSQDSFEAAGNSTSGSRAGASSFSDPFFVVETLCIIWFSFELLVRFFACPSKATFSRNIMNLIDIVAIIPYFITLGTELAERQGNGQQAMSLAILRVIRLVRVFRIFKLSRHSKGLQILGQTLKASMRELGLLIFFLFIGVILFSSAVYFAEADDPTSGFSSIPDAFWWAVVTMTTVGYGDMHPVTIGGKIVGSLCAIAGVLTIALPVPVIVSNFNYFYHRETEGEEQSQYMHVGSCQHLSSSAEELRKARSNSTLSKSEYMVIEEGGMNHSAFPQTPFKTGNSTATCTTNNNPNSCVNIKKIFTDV

SMILES	IC50 (human Kv1.3 (CHO)) [nM]	IC50 (human Kv1.1 (HEK293)) [nM]
CC[C@H](C)[C@@H]1NC(=O)[C@H](Cc2cccc3ccccc23)NC(=O)[C@@H](NC(=O)[C@H](CCCCN)NC(=O)[C@@H](NC(=O)[C@H](CC(N)=O)NC(=O)[C@@H](NC(=O)[C@@H](NC(=O)[C@@H](NC(=O)CN)C(C)C)[C@@H](C)CC)[C@@H](C)CC)C(C)C)CSSC[C@@H]2NC(=O)[C@H](CCCCN)NC(=O)CNC(=O)[C@H](Cc3ccccc3)NC(=O)[C@H](CCCNC(=N)N)NC(=O)[C@H](CCSC)NC(=O)CNC(=O)[C@H](C)NC(=O)[C@H](CCCCN)NC(=O)[C@H](CCCCN)NC(=O)[C@@H]3CSSC[C@@H](C(=O)N[C@H](C(=O)N4CCC[C@H]4C(=O)N[C@@H](CCCCN)C(=O)O)[C@@H](C)O)NC(=O)[C@H](Cc4c[nH]cn4)NC(=O)[C@H](CSSC[C@H](NC(=O)[C@H](CCC(N)=O)NC(=O)[C@H](CCCNC(=N)N)NC(=O)[C@H](CO)NC1=O)C(=O)N[C@@H](CC(C)C)C(=O)N[C@@H](CCC(=O)O)C(=O)N1CCC[C@H]1C(=O)N3)NC(=O)[C@H](CCCCN)NC(=O)CNC(=O)[C@H](CC(N)=O)NC(=O)[C@H](CCSC)NC2=O [K9Nal] (H-GVIINVKC[1Nal]ISRQCLEPCKKAGMRFGKCMNGKCHCTPK-OH; disulfide 8-28, 14-33, 18-35)	0.0658	0.00292
CC[C@H](C)[C@@H]1NC(=O)[C@H](CCCNC(=N)N)NC(=O)[C@@H](NC(=O)[C@H](CCCCN)NC(=O)[C@@H](NC(=O)[C@H](CC(N)=O)NC(=O)[C@@H](NC(=O)[C@@H](NC(=O)[C@@H](NC(=O)CN)C(C)C)[C@@H](C)CC)[C@@H](C)CC)C(C)C)CSSC[C@@H]2NC(=O)[C@H](CCCCN)NC(=O)CNC(=O)[C@H](Cc3ccccc3)NC(=O)[C@H](CCCNC(=N)N)NC(=O)[C@H](CCSC)NC(=O)CNC(=O)[C@H](C)NC(=O)[C@H](CCCCN)NC(=O)[C@H](CCCCN)NC(=O)[C@@H]3CSSC[C@@H](C(=O)N[C@H](C(=O)N4CCC[C@H]4C(=O)N[C@@H](CCCCN)C(=O)O)[C@@H](C)O)NC(=O)[C@H](Cc4c[nH]cn4)NC(=O)[C@H](CSSC[C@H](NC(=O)[C@H](CCC(N)=O)NC(=O)[C@H](CCCNC(=N)N)NC(=O)[C@H](CO)NC1=O)C(=O)N[C@@H](CC(C)C)C(=O)N[C@@H](CCC(=O)O)C(=O)N1CCC[C@H]1C(=O)N3)NC(=O)[C@H](CCCCN)NC(=O)CNC(=O)[C@H](CC(N)=O)NC(=O)[C@H](CCSC)NC2=O [K9R] (H-GVIINVKCRISRQCLEPCKKAGMRFGKCMNGKCHCTPK-OH; disulfide 8-28, 14-33, 18-35)	0.012	0.00201
CC[C@H](C)[C@@H]1NC(=O)[C@H](CCCCN)NC(=O)[C@@H](NC(=O)[C@H](CCCCN)NC(=O)[C@@H](NC(=O)[C@H](CC(N)=O)NC(=O)[C@@H](NC(=O)[C@@H](NC(=O)[C@@H](NC(=O)CN)C(C)C)[C@@H](C)CC)[C@@H](C)CC)C(C)C)CSSC[C@@H]2NC(=O)[C@H](CCCCN)NC(=O)CNC(=O)[C@H](Cc3ccccc3)NC(=O)[C@H](CCCNC(=N)N)NC(=O)[C@H](CCSC)NC(=O)CNC(=O)[C@H](C)NC(=O)[C@H](CCCCN)NC(=O)[C@H](C)NC(=O)[C@@H]3CSSC[C@@H](C(=O)N[C@H](C(=O)N4CCC[C@H]4C(=O)N[C@@H](CCCCN)C(=O)O)[C@@H](C)O)NC(=O)[C@H](Cc4c[nH]cn4)NC(=O)[C@H](CSSC[C@H](NC(=O)[C@H](CCC(N)=O)NC(=O)[C@H](CCCNC(=N)N)NC(=O)[C@H](CO)NC1=O)C(=O)N[C@@H](CC(C)C)C(=O)N[C@@H](CCC(=O)O)C(=O)N1CCC[C@H]1C(=O)N3)NC(=O)[C@H](CCCCN)NC(=O)CNC(=O)[C@H](CC(N)=O)NC(=O)[C@H](CCSC)NC2=O [K19A] (H-GVIINVKCKISRQCLEPCAKAGMRFGKCMNGKCHCTPK-OH; disulfide 8-28, 14-33, 18-35)	0.21	0.0168
CC[C@H](C)[C@@H]1NC(=O)[C@H](CCCCN)NC(=O)[C@@H](NC(=O)[C@H](CCCCN)NC(=O)[C@@H](NC(=O)[C@H](CC(N)=O)NC(=O)[C@@H](NC(=O)[C@@H](NC(=O)[C@@H](NC(=O)CN)C(C)C)[C@@H](C)CC)[C@@H](C)CC)C(C)C)CSSC[C@@H]2NC(=O)[C@H](CCCCN)NC(=O)CNC(=O)[C@H](Cc3ccccc3)NC(=O)[C@H](CCCNC(=N)N)NC(=O)[C@H](CCSC)NC(=O)CNC(=O)[C@H](C)NC(=O)[C@H](CCCCN)NC(=O)[C@H](CCC(=O)O)NC(=O)[C@@H]3CSSC[C@@H](C(=O)N[C@H](C(=O)N4CCC[C@H]4C(=O)N[C@@H](CCCCN)C(=O)O)[C@@H](C)O)NC(=O)[C@H](Cc4c[nH]cn4)NC(=O)[C@H](CSSC[C@H](NC(=O)[C@H](CCC(N)=O)NC(=O)[C@H](CCCNC(=N)N)NC(=O)[C@H](CO)NC1=O)C(=O)N[C@@H](CC(C)C)C(=O)N[C@@H](CCC(=O)O)C(=O)N1CCC[C@H]1C(=O)N3)NC(=O)[C@H](CCCCN)NC(=O)CNC(=O)[C@H](CC(N)=O)NC(=O)[C@H](CCSC)NC2=O [K19E] (H-GVIINVKCKISRQCLEPCEKAGMRFGKCMNGKCHCTPK-OH; disulfide 8-28, 14-33, 18-35)	0.0235	0.0137
CC[C@H](C)[C@@H]1NC(=O)[C@H](CCCCN)NC(=O)[C@@H](NC(=O)[C@H](CCCCN)NC(=O)[C@@H](NC(=O)[C@H](CC(N)=O)NC(=O)[C@@H](NC(=O)[C@@H](NC(=O)[C@@H](NC(=O)CN)C(C)C)[C@@H](C)CC)[C@@H](C)CC)C(C)C)CSSC[C@@H]2NC(=O)[C@H](CCCCN)NC(=O)CNC(=O)[C@H](Cc3ccccc3)NC(=O)[C@H](CCCNC(=N)N)NC(=O)[C@H](CCSC)NC(=O)CNC(=O)[C@H](C)NC(=O)[C@H](CCCCN)NC(=O)[C@H](CCCNC(=N)N)NC(=O)[C@@H]3CSSC[C@@H](C(=O)N[C@H](C(=O)N4CCC[C@H]4C(=O)N[C@@H](CCCCN)C(=O)O)[C@@H](C)O)NC(=O)[C@H](Cc4c[nH]cn4)NC(=O)[C@H](CSSC[C@H](NC(=O)[C@H](CCC(N)=O)NC(=O)[C@H](CCCNC(=N)N)NC(=O)[C@H](CO)NC1=O)C(=O)N[C@@H](CC(C)C)C(=O)N[C@@H](CCC(=O)O)C(=O)N1CCC[C@H]1C(=O)N3)NC(=O)[C@H](CCCCN)NC(=O)CNC(=O)[C@H](CC(N)=O)NC(=O)[C@H](CCSC)NC2=O [K19R] (H-GVIINVKCKISRQCLEPCRKAGMRFGKCMNGKCHCTPK-OH; disulfide 8-28, 14-33, 18-35)	0.0126	0.00241
CC[C@H](C)[C@@H]1NC(=O)[C@H](CCCCN)NC(=O)[C@@H](NC(=O)[C@H](CCCCN)NC(=O)[C@@H](NC(=O)[C@H](CC(N)=O)NC(=O)[C@@H](NC(=O)[C@@H](NC(=O)[C@@H](NC(=O)CN)C(C)C)[C@@H](C)CC)[C@@H](C)CC)C(C)C)CSSC[C@@H]2NC(=O)[C@H](CCCCN)NC(=O)CNC(=O)[C@H](Cc3ccccc3)NC(=O)[C@H](CCCNC(=N)N)NC(=O)[C@H](CCSC)NC(=O)CNC(=O)[C@H](C)NC(=O)[C@H](C)NC(=O)[C@H](CCCCN)NC(=O)[C@@H]3CSSC[C@@H](C(=O)N[C@H](C(=O)N4CCC[C@H]4C(=O)N[C@@H](CCCCN)C(=O)O)[C@@H](C)O)NC(=O)[C@H](Cc4c[nH]cn4)NC(=O)[C@H](CSSC[C@H](NC(=O)[C@H](CCC(N)=O)NC(=O)[C@H](CCCNC(=N)N)NC(=O)[C@H](CO)NC1=O)C(=O)N[C@@H](CC(C)C)C(=O)N[C@@H](CCC(=O)O)C(=O)N1CCC[C@H]1C(=O)N3)NC(=O)[C@H](CCCCN)NC(=O)CNC(=O)[C@H](CC(N)=O)NC(=O)[C@H](CCSC)NC2=O [K20A] (H-GVIINVKCKISRQCLEPCKAAGMRFGKCMNGKCHCTPK-OH; disulfide 8-28, 14-33, 18-35)	1.04	0.185

Reference: US20090299044A1 (priority 2006, published 2009)
